Laboratory results as given in patent publication US20250032598A1, “Compounds, Pharmaceuticals, Formulations, and Methods for Treating and Preventing RNA Virus Infections and Associated Diseases” (ASAVI LLC, priority 2023, published 2025).
Like-named read-outs stand apart in the source and are kept apart here.

Key:
SARS-CoV-2 = type: in vivo, Syrian hamsters
influenza = settings: cited from earlier work
[1] = female Syrian hamsters, lung homogenates 96 hours after infection, 50,000 KIU/kg intravenously 2 times a day for 4 days, Lip-APR = composition 2
[2] = male Syrian hamsters, lung homogenates 96 hours after infection, 50,000 KIU/kg intravenously 2 times a day for 4 days, Lip-APR = composition 2
[3] = male and female Syrian hamsters pooled, lung homogenates, 10,000 KIU/ml, 50,000 KIU/kg intravenously

aprotinin
Infectious titer lg (TCID50/mL) ± SD (SARS-CoV-2; [1]): 4.38±0.85 lg (TCID50/mL)
Viral load Ct ± SD (SARS-CoV-2; [1]): 17.51±1.04 Ct
Anti-SARS-CoV-2/COVID-19 efficacy (in words) (SARS-CoV-2; intravenous, 50,000 KIU/kg, versus untreated control): no antiviral activity
Infectious titer lg (TCID50/mL) ± SD (SARS-CoV-2; [2]): 3.88±0.48 lg (TCID50/mL)
Viral load Ct ± SD (SARS-CoV-2; [2]): 17.51±1.28 Ct
Infectious titer lg (TCID50/mL) ± SD (SARS-CoV-2; [3]): 4.13±0.69 lg (TCID50/mL)
Viral load Ct ± SD (SARS-CoV-2; [3]): 17.72±1.10 Ct
Reduction in viral load compared with patients treated with Ingavirin (influenza; APR aerosol, patients): approximately 10 fold
Side effects and discomfort (influenza; patients of the APR group): not identified
Duration of clinical symptoms, shorter than in the Ingavirin group (influenza; rhinorrhea, weakness, headache, sore throat, cough, chest pain, fever): 1 to 2 days
